Test results from article PMC4550094 (Journal of biomolecular screening, 2013).
Where “and” joins values, the source holds several entries; their conditions need not be identical. Equal values may be shown once. Read-outs that look alike come from different tables or passages of the source.

Legend:
HepG2 cells [1] = experiment: CellTiter-Glo cell viability assay; type: cell-based, Human; details: for Cell Viability IC50 / Cell Viability Efficacy (maximum inhibition of cell viability): HepG2, 24 h treatment, mean ± SD of three experiments; for IC50: Homo sapiens, HepG2, 24 h, read-out: Cell Viability IC50
HepG2 cells [2] = experiment: LipidTOX Red PLD assay, qHTS, 1536-well high-content imaging; type: cell-based, Human; details: for Primary Screen Efficacy: LOPAC primary qHTS, % of PLD induction by 19.16 µM amiodarone; for Primary Screen Efficacy / EC50: HepG2, 24 h; for EC50: Homo sapiens; for PLD induction (result in words): HepG2, primary screen and cherry-pick confirmation
I13-35 cells = details: read-out: Literature-Reported EC50, cited from earlier work
HepG2 cells [3] = details: cited from earlier work
[4] = read-out: Confirmation EC50 (PLD induction)
[5] = read-out: Primary Screen EC50 (PLD induction)

Compound	Cell Viability Efficacy (maximum inhibition of cell viability) (HepG2 cells [1])	EC50 (HepG2 cells [2]; [4]) [µM]	EC50 (HepG2 cells [2]; [5]) [µM]	PLD induction (result in words) (HepG2 cells [2])	other results
CC(C)NCC(O)COc1cccc2ccccc12 (racemic) [(±)-Propranolol]	–	–	–	–	Cell Viability IC50 (HepG2 cells [1]): Inactive
NC(N)=NC(=O)c1nc(Cl)c(N2CCCCCC2)nc1N [5-(N,N-hexamethylene) amiloride]	40.7±4.9%	–	–	–	Primary Screen Efficacy (HepG2 cells [2]): 52.8%
CC(C)(C)[C@]1(O)CCN2C[C@H]3c4ccccc4CCc4cccc(c43)[C@@H]2C1 [(+)-Butaclamol]	47.2±18.3%	–	–	–	IC50 (HepG2 cells [1]): 47.8 ± 32.2 µM
NC12CC3CC(CC(C3)C1)C2 [Amantadine]	–	3.9 ± 4.5	0.9	–	EC50 (I13-35 cells; I13-35 cells): 239 µM
CN(C)CCC=C1c2ccccc2CCc2ccccc21 [Amitriptyline]	–	4.6 ± 0.5	10	–	EC50 (HepG2 cells [3]; read-out: Literature-Reported EC50): 15 µM
COc1cc2nc(N3CCCN(C)CC3)nc(NC3CCN(Cc4ccccc4)CC3)c2cc1OC [BIX 01294]	98% and 98.6±3.3%	1.6 ± 0.4	3.5	–	IC50 (HepG2 cells [1]): 10 ± 1.6 µM
CC(N)Cc1c[nH]c2ccc(OCc3cccs3)cc12 (stereo not shown) [BW 723C86]	37.7±11.9%	–	–	–	Primary Screen Efficacy (HepG2 cells [2]): 62.2%
CN1CCN(c2nc3cc(C(F)(F)F)ccc3n3cccc23)CC1 [CGS-12066A]	56.7±13.3%	–	–	–	Primary Screen Efficacy (HepG2 cells [2]): 103.7%
CCN(CC)CCCC(C)Nc1ccnc2cc(Cl)ccc12 (stereo not shown) [Chloroquine]	–	23.6	28.2	–	EC50 (I13-35 cells): 11.8 µM
CN(C)CCCN1c2ccccc2Sc2ccc(Cl)cc21 [Chlorpromazine]	–	5.4 ± 1.9	10	–	EC50 (I13-35 cells; I13-35 cells): 4.1 µM
CN(C)CCCC1(c2ccc(F)cc2)OCc2cc(C#N)ccc21 (stereo not shown) [Citalopram]	–	27.5 ± 3.1	10	–	EC50 (I13-35 cells; I13-35 cells): 38 µM
CN1CCN(C2=Nc3cc(Cl)ccc3Nc3ccccc32)CC1 [Clozapine]	–	–	–	–	Literature-Reported: Active at (concentration) (HepG2 cells [3]): Active at 16 µM
CNCCCN1c2ccccc2CCc2ccccc21 [Desipramine]	–	5.1 ± 1.1	11.2	–	EC50 (I13-35 cells; I13-35 cells): 9.1 µM
CN(C)CCC=C1c2ccccc2COc2ccccc21 [Doxepin]	–	–	–	–	Literature-Reported: Active at (concentration) (HepG2 cells [3]): Active at 25 µM
OC(CN1CCC(Cc2ccc(F)cc2)CC1)c1ccc(Cl)cc1 (stereo not shown) [Eliprodil]	24.6±2.1%	9 ± 5	10	–	IC50 (HepG2 cells [1]): 26.5 ± 2.2 µM
Cc1c2ccncc2c(C)c2c1[nH]c1ccccc12 [Ellipticine]	102.3±4.0%	9 ± 3.3	5	–	IC50 (HepG2 cells [1]): 29.8 ± 2.4 µM
COc1ccc(NC(=O)c2ccc(-c3ccc(-c4noc(C)n4)cc3C)cc2)cc1N1CCN(C)CC1 [GR 127935]	106.7±13.6%	0.8	6.3	significantly induced PLD formation	IC50 (HepG2 cells [1]): 42.6 ± 10.3 µM
COc1ccc2c(c1)c(CCN1CCOCC1)c(C)n2C(=O)c1cccc(Cl)c1Cl [GW405833]	70.0±58.7%	–	–	–	Primary Screen Efficacy (HepG2 cells [2]): 49.4%
CC(C(O)c1ccc(O)cc1)N1CCC(Cc2ccccc2)CC1 (stereo not shown) [Ifenprodil]	25.5±0.8%	12.3 ± 6.7	7.9	–	IC50 (HepG2 cells [1]): 21.1 ± 1.7 µM
CN(C)CCCN1c2ccccc2CCc2ccccc21 [Imipramine]	–	20.8 ± 6.9	10	–	EC50 (I13-35 cells; I13-35 cells): 21 µM
COc1cc2nc(N3CCN(C(=O)OCc4ccccc4)[C@H](C(=O)NC(C)(C)C)C3)nc(N)c2cc1OC [L-765,314]	115.2±0.3%	–	–	–	Primary Screen Efficacy (HepG2 cells [2]): 54.1%
CC(CCc1ccccc1)NCC(O)c1ccc(O)c(C(N)=O)c1 (stereo not shown) [Labetalol]	–	24.8 ± 4.9	12.6	–	–
CCOC(=O)N1CCC(=C2c3ccc(Cl)cc3CCc3cccnc32)CC1 [Loratadine]	–	–	–	–	Literature-Reported: Active at (concentration) (HepG2 cells [3]): Active at 16 µM

Compound	Cell Viability Efficacy (maximum inhibition of cell viability) (HepG2 cells [1])	EC50 (HepG2 cells [2]; [4]) [µM]	EC50 (HepG2 cells [2]; [5]) [µM]	PLD induction (result in words) (HepG2 cells [2])	other results
CC12CC3CC(C)(C1)CC(N)(C3)C2 [Memantine]	–	29 ± 1.7	12.6	–	EC50 (I13-35 cells; I13-35 cells): 93.7 µM
CN1C[C@H](CNC(=O)OCc2ccccc2)C[C@@H]2c3cccc4c3c(cn4C)C[C@H]21 [Metergoline]	127.9±4.1%	5.8 ± 1.3	2.5	–	IC50 (HepG2 cells [1]): 62.8 µM
CSc1ccc2c(c1)C(N1CCN(C)CC1)Cc1ccccc1S2 (stereo not shown) [Methiothepin]	121.8±9.0%	–	–	–	Primary Screen Efficacy (HepG2 cells [2]): 76.9%
COCC(=O)O[C@]1(CCN(C)CCCc2nc3ccccc3[nH]2)CCc2cc(F)ccc2[C@@H]1C(C)C [Mibefradil]	97.0±3.3%	10.4 ± 3.3	4.5	–	IC50 (HepG2 cells [1]): 25.2 ± 4.1 µM
COc1ccccc1N1CCN(CCCCN2C(=O)c3ccccc3C2=O)CC1 [NAN-190]	–	2 ± 0.3	2.2	significantly induced PLD formation	Cell Viability IC50 (HepG2 cells [1]): Inactive
CC(C)[C@H]1c2ccc(F)cc2CC[C@@]1(CCN(C)CCCc1nc2ccccc2[nH]1)OC(=O)C1CC1 [NNC 55-0396]	106% and 106.3±4.3%	–	–	–	Primary Screen Efficacy (HepG2 cells [2]): 91.6%
CN1CCN(C2Cc3ccccc3Sc3ccc(Cl)cc32)CC1.O=C(O)/C=C\C(=O)O (stereo not shown) [Octoclothepin]	121.0±4.9%	–	–	–	Primary Screen Efficacy (HepG2 cells [2]): 135.0%
C[C@@H]1O[C@@H](O[C@H]2C[C@@H](O)[C@]3(CO)[C@H]4[C@H](O)C[C@]5(C)[C@@H](C6=CC(=O)OC6)CC[C@]5(O)[C@@H]4CC[C@]3(O)C2)[C@H](O)[C@H](O)[C@H]1O [Ouabain]	43.6±1.1%	3 ± 1.8	0.4	–	Cell Viability Efficacy (maximum inhibition of cell viability) (HepG2 cells [1]; listed as ouabain): 42%; IC50 (HepG2 cells [1]): 0.2 µM
CN(C)CCCN1c2ccccc2Sc2ccccc21 [Promazine]	–	5.7 ± 1.9	22.4	–	EC50 (I13-35 cells; I13-35 cells): 5.3 µM
CC[C@]1(O)C[C@@H]2CN(CCc3c([nH]c4ccccc34)[C@@](C(=O)OC)(c3cc4c(cc3OC)N(C)[C@H]3[C@@](O)(C(=O)OC)[C@H](OC(C)=O)[C@]5(CC)C=CCN6CC[C@]43[C@@H]65)C2)C1 [Vinblastine]	–	9.5 ± 5.5	12.6	–	Cell Viability IC50 (HepG2 cells [1]): Inactive
CN(C)C/C=C(/c1ccc(Br)cc1)c1cccnc1 [Zimelidine]	–	27.4 ± 1.5	14.1	–	EC50 (I13-35 cells; I13-35 cells): 30.4 µM
CN(C)CC/C=C1/c2ccccc2Sc2ccc(Cl)cc21 [chlorprothixene]	–	–	–	significantly induced PLD formation	–
Cl.Cl.OCCN1CCN(CC/C=C2/c3ccccc3Sc3ccc(C(F)(F)F)cc32)CC1 [cis-(Z)-Flupenthixol]	131.7±6.4%	–	–	significantly induced PLD formation	Primary Screen Efficacy (HepG2 cells [2]): 37.3%
CN1CCC[C@@H]1CCO[C@](C)(c1ccccc1)c1ccc(Cl)cc1 [clemastine]	–	–	–	significantly induced PLD formation	–
CN(C)CCC=C1c2ccccc2C=Cc2ccccc21 [cyclobenzaprine]	–	–	–	identified as novel PLD inducers	–
CN1CCC(=C2c3ccccc3C=Cc3ccccc32)CC1 [cyproheptadine]	–	–	–	identified as novel PLD inducers	–
OCCN1CCN(CCCN2c3ccccc3Sc3ccc(C(F)(F)F)cc32)CC1 [fluphenazine]	–	–	–	positive	–
CN1CCN(C2=Nc3ccccc3Oc3ccc(Cl)cc32)CC1 [lozapine]	–	–	–	positive	–
OCCN1CCN(CCCN2c3ccccc3C=Cc3ccccc32)CC1 [opipramol]	–	–	–	identified as novel PLD inducers	–
COc1ccccc1N1CCN(CCN(C(=O)c2ccc(F)cc2)c2ccccn2)CC1 [p-MPPF]	–	–	–	significantly induced PLD formation	–
CC(CN1c2ccccc2Sc2ccccc21)N(C)C (stereo not shown) [promethazine]	–	–	–	positive	–
CN1CCN(CCCN2c3ccccc3Sc3ccc(C(F)(F)F)cc32)CC1 [trifluoperazine]	–	–	–	positive	–
aminobenzotropine	–	–	–	significantly induced PLD formation	–
